Data taken from patent US6596687B1, “Cell adhesion inhibitors” (Biogen, Inc., priority 1995, dated 2003).
Numbered stars: 1 amine (or outer) side, 2 acyl side, 3 side chain; on linkers, the order of the positions; unused ones are H or OH. Square brackets hold non-standard residues; d marks the D form. Peptide text beside a SMILES is read from it. * marks the point of attachment. X2 = O=C(Cc1ccc(N[*:1])cc1)[*:2]; NH(2-Me-phenyl) = Cc1ccccc1N*; NHcHex = C1CCC(N*)CC1; CO = O=C([*:1])[*:2]; NHPh = c1ccc(N*)cc1; X4 = c1ccc(N*)nc1

The compounds below were run against T1, VLA4 (Homo sapiens, UniProt P05556+P13612) (assay: Inhibition of VLA4-dependent adhesion of Ramos cells to BSA-CS1). Settings: Ramos cells, BSA-CS1 coated wells, 2 mM MnCl2, 30 minutes at room temperature; read-out: IC50.
T1 construct: endogenous in cells; host or cells: Ramos cells
Type: cell-based
Procedure, shortened: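 BCECF-AM-labelled Ramos cells in Tris buffer pH 7.4 with 2 mM MnCl2 were added with compound to wells coated with BSA-conjugated Cys-Tyr-CS1 peptide (1 μg/mL). Cells and compound were incubated for 30 min at room temperature, in triplicate. Inhibition was quantified from bound fluorescence against no-compound controls, with uncoated wells used for nonspecific binding.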

T1 sequence (P13612 34-1032): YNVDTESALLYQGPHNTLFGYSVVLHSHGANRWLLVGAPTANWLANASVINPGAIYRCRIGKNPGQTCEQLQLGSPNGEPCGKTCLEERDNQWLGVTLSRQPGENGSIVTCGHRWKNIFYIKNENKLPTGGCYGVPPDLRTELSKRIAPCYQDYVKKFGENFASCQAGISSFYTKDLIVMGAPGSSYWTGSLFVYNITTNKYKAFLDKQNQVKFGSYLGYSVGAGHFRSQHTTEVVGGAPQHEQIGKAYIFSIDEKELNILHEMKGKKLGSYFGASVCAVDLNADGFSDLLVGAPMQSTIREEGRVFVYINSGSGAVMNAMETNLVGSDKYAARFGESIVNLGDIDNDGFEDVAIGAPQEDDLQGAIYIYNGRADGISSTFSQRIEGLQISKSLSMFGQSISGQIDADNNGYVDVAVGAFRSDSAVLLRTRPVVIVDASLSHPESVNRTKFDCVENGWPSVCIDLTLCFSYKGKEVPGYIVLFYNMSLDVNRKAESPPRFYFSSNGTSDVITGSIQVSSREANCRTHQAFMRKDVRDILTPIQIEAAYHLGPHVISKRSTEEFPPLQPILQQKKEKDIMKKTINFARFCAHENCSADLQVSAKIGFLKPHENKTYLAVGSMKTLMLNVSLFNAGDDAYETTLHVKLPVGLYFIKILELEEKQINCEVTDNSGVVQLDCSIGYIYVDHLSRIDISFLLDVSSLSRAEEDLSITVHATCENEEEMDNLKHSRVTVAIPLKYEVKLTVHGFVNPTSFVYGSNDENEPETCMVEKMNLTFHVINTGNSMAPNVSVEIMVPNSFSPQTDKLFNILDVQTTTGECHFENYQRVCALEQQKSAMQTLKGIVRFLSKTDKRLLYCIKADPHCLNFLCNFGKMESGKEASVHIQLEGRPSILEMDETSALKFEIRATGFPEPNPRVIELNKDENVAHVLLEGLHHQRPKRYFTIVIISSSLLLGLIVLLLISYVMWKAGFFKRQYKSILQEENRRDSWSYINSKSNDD
T1 sequence (P05556 21-798): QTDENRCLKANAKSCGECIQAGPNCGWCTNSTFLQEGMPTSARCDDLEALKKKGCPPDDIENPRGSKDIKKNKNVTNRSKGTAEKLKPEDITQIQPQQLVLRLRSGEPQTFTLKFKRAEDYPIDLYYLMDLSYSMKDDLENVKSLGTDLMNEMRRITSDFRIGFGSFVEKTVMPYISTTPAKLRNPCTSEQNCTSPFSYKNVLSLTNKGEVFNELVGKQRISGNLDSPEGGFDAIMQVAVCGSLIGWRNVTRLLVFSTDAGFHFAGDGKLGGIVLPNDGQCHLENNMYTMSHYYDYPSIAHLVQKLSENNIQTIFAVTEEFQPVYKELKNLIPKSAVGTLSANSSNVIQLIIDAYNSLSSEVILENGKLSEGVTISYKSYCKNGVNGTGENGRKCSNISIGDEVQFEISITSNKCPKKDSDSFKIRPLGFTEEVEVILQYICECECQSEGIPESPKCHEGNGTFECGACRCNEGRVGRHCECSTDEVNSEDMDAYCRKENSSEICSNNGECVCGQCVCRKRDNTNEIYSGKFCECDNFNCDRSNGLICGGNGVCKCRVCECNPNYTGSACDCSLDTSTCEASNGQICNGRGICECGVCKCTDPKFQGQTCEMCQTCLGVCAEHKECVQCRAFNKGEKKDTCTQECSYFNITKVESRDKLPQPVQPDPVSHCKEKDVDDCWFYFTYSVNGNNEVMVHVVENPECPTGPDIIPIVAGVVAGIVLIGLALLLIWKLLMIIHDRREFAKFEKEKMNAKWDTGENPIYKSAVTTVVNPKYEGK

| IC50 | Compound |
| --- | --- |
| < 50 nM | Cc1ccccc1NC(=O)Nc1ccc(CC(=O)N2CCC[C@H]2C(=O)N[C@@H](CCC(=O)O)C(=O)N[C@H](C(N)=O)C(C)C)cc1 [Compound 313] |
| < 50 nM | CSCC[C@H](NC(=O)Cc1ccc(NC(=O)Nc2ccccc2C)cc1)C(=O)N[C@@H](CC(=O)O)C(=O)N[C@H](C(=O)N1CCC[C@H]1C(=O)O)C(C)C [Compound 315] ({NH(2-Me-phenyl)-CO}-[X2]MDVP-OH) |
| < 50 nM | CC(C)C[C@H](NC(=O)Cc1ccc(NC(=O)Nc2ccccn2)cc1)C(=O)N[C@@H](CC(=O)O)C(=O)N[C@H](C(=O)N1CCC[C@H]1C(=O)O)C(C)C [Compound 316] ({X4-CO}-[X2]LDVP-OH) |
| < 50 nM | CC(C)C[C@H](NC(=O)Cc1ccc(NC(=O)Nc2ccccc2)cc1)C(=O)N[C@@H](CC(=O)O)C(=O)N[C@H](C(=O)N1CCOCC1)C(C)C [Compound 318] |
| 50 to 10000 nM | CC(C)C[C@H](NC(=O)Cc1ccc(NC(=O)Nc2ccccc2)cc1)C(=O)N[C@@H](CC(=O)O)C(=O)N[C@H](C(=O)NC(C)C)C(C)C [Compound 319] |
| 50 to 10000 nM | CC(C)C[C@H](NC(=O)Cc1ccc(NC(=O)Nc2ccccc2)cc1)C(=O)N[C@@H](CC(=O)O)C(=O)N[C@H](C(=O)NC1CCCCC1)C(C)C [Compound 320] |
| 50 to 10000 nM | CC(C)C[C@H](NC(=O)Cc1ccc(NC(=O)Nc2ccccc2)cc1)C(=O)N[C@@H](CC(=O)O)C(=O)N[C@H](C(=O)NCc1ccccc1)C(C)C [Compound 321] |
| < 50 nM | CC(C)C[C@H](NC(=O)Cc1ccc(NC(=O)Nc2ccccc2)cc1)C(=O)N[C@@H](CC(=O)O)C(=O)N[C@H](C(=O)N1CCCCC1)C(C)C [Compound 322] |
| 50 to 10000 nM | CC(C)C[C@H](NC(=O)Cc1ccc(NC(=O)Nc2ccccc2)cc1)C(=O)N[C@@H](CC(=O)O)C(=O)N[C@H](C(=O)N1CCC[C@H]1C(=O)NC1CCCCC1)C(C)C [Compound 324] ({NHPh-CO}-[X2]LDVP-NHcHex) |

Continued, compound first:

| Compound | IC50 |
| --- | --- |
| Cc1ccccc1NC(=O)Nc1ccc(CC(=O)N[C@H](C(=O)N[C@@H](CC(=O)O)C(=O)N[C@@H](CC(C)C)C(N)=O)[C@@H](C)O)cc1 [Compound 253] | < 50 nM |
| CC[C@H](C)[C@H](NC(=O)[C@H](CC(=O)O)NC(=O)[C@@H](NC(=O)Cc1ccc(NC(=O)Nc2ccccc2C)cc1)[C@@H](C)O)C(N)=O [Compound 255] | < 50 nM |
| Cc1ccccc1NC(=O)Nc1ccc(CC(=O)N[C@@H](CCC(=O)O)C(=O)N[C@@H](CC(=O)O)C(=O)N[C@@H](CC(=O)O)C(N)=O)cc1 [Compound 263] | < 50 nM |
| Cc1ccccc1NC(=O)Nc1ccc(CC(=O)N[C@@H](CO)C(=O)N[C@@H](CC(=O)O)C(=O)N[C@@H](CC(C)C)C(N)=O)cc1 [Compound 276] | < 50 nM |
| Cc1ccccc1NC(=O)Nc1ccc(CC(=O)N[C@@H](CO)C(=O)N[C@@H](CC(=O)O)C(=O)N[C@@H](CCC(=O)O)C(N)=O)cc1 [Compound 279] | < 50 nM |
| CC[C@H](C)[C@H](NC(=O)Cc1ccc(NC(=O)Nc2ccccc2C)cc1)C(=O)N[C@@H](CC(=O)O)C(=O)N[C@@H](CC(=O)O)C(N)=O [Compound 286] | < 50 nM |
| CC[C@H](C)[C@H](NC(=O)Cc1ccc(NC(=O)Nc2ccccc2C)cc1)C(=O)N[C@@H](CC(=O)O)C(=O)N[C@@H](CCC(=O)O)C(N)=O [Compound 290] | < 50 nM |
| CC[C@H](C)[C@H](NC(=O)[C@H](CC(=O)O)NC(=O)[C@H](CCC(N)=O)NC(=O)Cc1ccc(NC(=O)Nc2ccccc2C)cc1)C(N)=O [Compound 300] | < 50 nM |
| CSCC[C@H](NC(=O)[C@H](CC(=O)O)NC(=O)[C@H](CCC(N)=O)NC(=O)Cc1ccc(NC(=O)Nc2ccccc2C)cc1)C(N)=O [Compound 303] | < 50 nM |
| Cc1ccccc1NC(=O)Nc1ccc(CC(=O)N[C@@H](CC(C)C)C(=O)N[C@@H](CCC(=O)O)C(=O)N[C@@H](CC(=O)O)C(N)=O)cc1 [Compound 310] | < 50 nM |
| Cc1ccccc1NC(=O)Nc1ccc(CC(=O)N[C@@H](CC(C)C)C(=O)N[C@@H](CCC(=O)O)C(=O)N[C@H](C(N)=O)C(C)C)cc1 [Compound 311] | < 50 nM |
